Here are results for three compounds from paper PMC9221442, “Design, Synthesis and Characterization of [G10a]-Temporin SHa Dendrimers as Dual Inhibitors of Cancer and Pathogenic Microbes” (Biomolecules, 2022).

Where two headings read alike, the source gives them in different places. Where a SMILES comes first, the peptide text is derived from it. Bridges are numbered along the chain shown (N, C = ends). Roman numbers before positions name the chains, in order. Where no end group is shown, it is not given here. [ ]: non-standard residue; d: D form.

Series [1] concerns breast cancer cells MCF-7. The class given is cell-based, human. The following applies: 48 h. The method, then:
(§1) The antiproliferative effect of the peptides was determined by using human cells, as previously described. Human cancer cells used in this experiment were ovarian cancer cells A2780 (obtained from ECACC), breast cancer cells MCF-7 (obtained from ATCC), liver cancer cells HepG2 (obtained from ATCC), lung cancer cells A549 (obtained from ATCC), pancreatic cancer cells MiaPaCa (obtained from ATCC), prostate cancer cells PC-3 (obtained from ATCC), and skin cancer cells MNT-1 (generous gift from the National Institute of Health (NIH). Normal human cells used were human lung fibroblasts IMR-90 (obtained from ATCC). All cells were cultured in DMEM which was supplemented with 10% fetal bovine serum (FBS), 1% L-glutamine, and 1% antibiotics (all from Invitrogen) at 37 °C in 5% CO2 incubator. For cytotoxicity assay, cells were maintained in 25 cm^2 flasks. Cells were separated from flasks using trypsin-EDTA solution (from Thermofisher) and counted using Malassez chamber and diluted in culture medium before seeding into 96-well cell-culture plates (Greiner bio-one, Paris, France) at approximately 3000 cells/well. Cells were then treated with increasing concentration of peptides diluted in culture medium (1:2 serial dilution, from 100 µM to 0 µM). After 48 h, medium was aspirated and number of viable cells was colorimetrically determined using resazurin-based assay following manufacturer’s instructions. The fluorescence intensity was measured using microplate reader (Biotek, Santa Clara, CA, USA, Synergy Mx) with an excitation wavelength of 530 nm and an emission wavelength of 590 nm. The fluorescence values were normalized by the controls (untreated cells) and expressed as percent of proliferation. The IC50 values of peptides (i.e., the concentrations causing 50% inhibition of cell proliferation) were determined using GraphPad® Prism 7 software.

The subject of series [2] is liver cancer cells HepG2. The class given is cell-based, human. The following applies: 48 h. On the procedure: as §1
Series [3] deals with lung cancer cells A549. In kind it is cell-based, human. Conditions: 48 h. On the procedure: as §1
For series [4], the system named is ovarian cancer cells A2780. The class given is cell-based, human. Conditions: 48 h. On the procedure:
as §1

Series [5] has as its system pancreatic cancer cells MiaPaCa. The class given is cell-based, human. Conditions: 48 h. The method, then: as §1
In series [6] the test system is prostate cancer cells PC-3. The class given is cell-based, human. The following applies: 48 h. The method, then:
as §1

Series [7] relates to skin cancer cells MNT-1. In kind it is cell-based, human. Conditions: 48 h. The method, then:
as §1

Series [8] deals with human cancer cells. In kind it is cell-based. On the procedure:
as §1

The test system of series [9] is human lung fibroblasts IMR-90. In kind it is cell-based. Conditions: 48 h. The method, then:
as §1

Series [10] deals with human red blood cells. The series is described as follows: Hemolysis assay. The class given is cell-based. The following applies: for hemolysis: 100 µM; for estimated HC50 (concentration causing 50% of hemolysis): 1 h. The method, then: (§2) The ability of dendrimers and peptides to cause hemolysis was evaluated using human whole red blood cells. Briefly, fresh human erythrocytes (obtained from Divbio Science Europe, NL) were washed 3 times by centrifugation at 800× g for 5 min with sterile phosphate buffer saline (PBS, pH 7.4). The washed erythrocytes were resuspended in complete culture media (DMEM supplemented with 10% FBS) to a final concentration of 8%. Human erythrocytes were then added into sterile 96-well microplates (150 µL per well) and were exposed to increasing concentrations of peptides or dendrimers. After 1 h incubation at 37 °C, plates were centrifuged at 800× g for 5 min. Then, 100 µL of supernatant were carefully transferred to a new 96-well microplate and absorbance was measured at 450 nm using microplate reader. Triton-X100 at 0.1% (v/v) was used as positive control giving 100% hemolysis. The HC50 values of peptides and dendrimers (i.e., the concentration of compound causing 50% of hemolysis) were calculated using GraphPad® Prism 7 software.

A short description of series [11]: Stability study at different temperatures (absorbance spectrum). Conditions: room temperature, 35 °C, 40 °C, 50 °C and 60 °C. On the procedure: The stability of dendrimers at different pH values and temperatures was also determined. For this, a 510 model digital pH meter (Oakton Eutech) with working electrode of glass material and a Ag/AgCl as reference electrode was used for the pH record. Dilute solutions of HCl and NaOH were added to adjust the pH of the solution from 2 to 12. Similarly, stability of monomer [G10a]-SHa and its three dendrimers was checked by heating the peptide dendrimers on different temperature ranges, i.e., room temperature, 35 °C, 40 °C, 50 °C and 60 °C.

The nature of series [12]: Stability study at different pH. Conditions: pH 2 to pH 14. The method, then:
The stability of dendrimers at different pH values and temperatures was also determined. For this, a 510 model digital pH meter (Oakton Eutech) with working electrode of glass material and a Ag/AgCl as reference electrode was used for the pH record. […] Similarly, stability of monomer [G10a]-SHa and its three dendrimers was checked by heating the peptide dendrimers on different temperature ranges, i.e., room temperature, 35 °C, 40 °C, 50 °C and 60 °C.

Series [13] concerns Acinetobacter baumannii (DSM 30007). In kind it is cell-based. The following applies: A. baumannii (DSM 30007), 18–24 h, aerobic. The method, then:
(§3) Experiments were performed in triplicate (n = 3).

The test system of series [14] is Bacillus subtilis (ATCC 6633). The class given is cell-based. Conditions: B. subtilis (ATCC 6633), 18–24 h, aerobic. The method, then: as §3
Series [15] concerns Enterobacter cloacae (DSM 30054). The class given is cell-based. Conditions: E. cloacae (DSM 30054), 18–24 h, aerobic. On the procedure:
as §3

Series [16] concerns Enterococcus faecalis (DSM 2570). In kind it is cell-based. The following applies: E. faecalis (DSM 2570), 18–24 h, micro-aerobic. The method, then: as §3
Series [17] has as its system Enterococcus faecium (DSM 20477). The class given is cell-based. Conditions: E. faecium (DSM 20477), 18–24 h, micro-aerobic. The method, then: as §3
The test system of series [18] is Escherichia coli (ATCC 8739). The class given is cell-based. Conditions: E. coli (ATCC 8739), 18–24 h, aerobic. On the procedure:
as §3

Series [19] has as its system Helicobacter pylori (ATCC 43504). In kind it is cell-based. Conditions: H. pylori (ATCC 43504), 18–24 h, micro-aerobic. The method, then: as §3
For series [20], the system named is Klebsiella pneumoniae (DSM 26371). The class given is cell-based. Conditions: K. pneumoniae (DSM 26371), 18–24 h. On the procedure: as §3
In series [21] the test system is Pseudomonas aeruginosa (ATCC 9027). The class given is cell-based. Conditions: P. aeruginosa (ATCC 9027), 18–24 h, aerobic. The method, then:
as §3

In series [22] the test system is Staphylococcus aureus (ATCC 6538). The class given is cell-based. Conditions: S. aureus (ATCC 6538), 18–24 h, aerobic. On the procedure: as §3
A short description of series [23]: Hemolysis assay. The class given is cell-based, human. The following applies: human; at 100 µM, 1 h, 37 °C, relative to Triton X-100 0.1%. On the procedure: as §2
The nature of series [24]: Dynamic light scattering (zetasizer). The class given is physicochemical. The method, then:
The dendrimeric solutions of peptides were transferred into transparent cuvette with care to remove bubble formation. The sample was then transferred to the cell holder and study was performed at 90° scattering angle at room temperature. The standard viscosity and refractive index were kept constant and kept at 1.0, 1.33 and 80.4 mPa, respectively.

Turning to `CC[C@H](C)[C@H](NC(=O)CNC(=O)[C@H](CO)NC(=O)[C@H](CC(C)C)NC(=O)[C@@H](N)Cc1ccccc1)C(=O)N[C@H](C(=O)NCC(=O)N[C@@H](CCSC)C(=O)N[C@@H](CC(C)C)C(=O)N[C@H](C)C(=O)N[C@@H](CCCCN)C(=O)N[C@@H](CC(C)C)C(=O)N[C@@H](Cc1ccccc1)C(=O)NCCCC[C@H](NC(=O)[C@H](Cc1ccccc1)NC(=O)[C@H](CC(C)C)NC(=O)[C@H](CCCCN)NC(=O)[C@@H](C)NC(=O)[C@H](CC(C)C)NC(=O)[C@H](CCSC)NC(=O)CNC(=O)[C@@H](NC(=O)[C@@H](NC(=O)CNC(=O)[C@H](CO)NC(=O)[C@H](CC(C)C)NC(=O)[C@@H](N)Cc1ccccc1)[C@@H](C)CC)C(C)C)C(N)=O)C(C)C` [[G10a]2-SHa] (HELM PEPTIDE1{F.L.S.G.I.V.G.M.L.[dA].K.L.F.K.[am]}|PEPTIDE2{F.L.S.G.I.V.G.M.L.[dA].K.L.F}$PEPTIDE1,PEPTIDE2,14:R3-13:R2$$$V2.0), the IC50 in series [1] was 5.69 ± 1.46 µM; in [2], 14.3 ± 1.37 µM; in series [3], 3.79 ± 1.61 µM; in [4], 4.42 ± 0.06 µM; in series [5], 8.71 ± 0.35 µM; in series [6], 6.31 ± 0.66 µM. The IC50 in [7] amounted to 4.72 ± 0.36 µM; in [8] (48 h) it was 6.85 ± 3.66 µM; in series [9], 22.3 ± 0.4 µM. Besides, the “hemolytic activity (in words)” value in [10] is recorded as “high hemolytic activity”. Moreover, the hemolysis entry in series [10] is reported as “complete hemolysis”. Besides, in [10] (red cells of human), the “estimated HC50 (concentration causing 50% of hemolysis)” value is 11.55 ± 0.38 µM. Also, the “stability at different temperatures” value in series [11] is “considerable stability up to 60 °C”. For the same compound, the “stability at different pH” value in [12] was “significantly stable at pH values up to 10 and unstable at high pH values of 12 and 14”.
“FLSGIVGMLGKLF-NH2 [Temporin SHa, H-Phe^1-Leu^2-Ser^3-Gly^4-Ile^5-Val^6-Gly^7-Met^8-Leu^9-Gly^10-Lys^11-Leu^12-Phe^13-NH2]”: the “minimal inhibitory concentration (MIC)” value in [13] was 6.25 µM; in series [14], 1.56 µM; in [15], 50 µM; in [16], 12.5 µM; in series [17], 6.25 µM; in series [18], 50 µM. Besides, the “minimal inhibitory concentration (MIC)” value is 3.12 µM in series [19], 50 µM in series [20], 50 µM in [21] and 3.12 µM in series [22]. Further, the IC50 in series [1] (Breast Cancer (MCF-7), read-out: IC50 (cell proliferation)) was 20.4 ± 5.64 µM; in series [2] (Liver Cancer (HepG-2), read-out: IC50 (cell proliferation)), over 100 µM; in series [3] (Lung Cancer (A549), read-out: IC50 (cell proliferation)), over 100 µM; in series [4] (Ovarian Cancer (A2780), read-out: IC50 (cell proliferation)), over 100 µM; in [5] (Pancreatic Cancer (MiaPaCa), read-out: IC50 (cell proliferation)), over 100 µM; in series [6] (Prostate Cancer (PC-3), read-out: IC50 (cell proliferation)), over 100 µM. The IC50 was over 100 µM in series [7] (Skin Cancer (MNT-1), read-out: IC50 (cell proliferation)); over 100 µM in series [8] (all cells except breast cancer MCF-7, up to 100 µM, read-out: IC50 on the human cells tested other than MCF-7); over 100 µM in [9] (Human Normal Fibroblast (IMR-90), read-out: IC50 (cell proliferation)). Also, in [23], the hemolysis at 1 h, 100 µM is 24.5 ± 1.88%. For the same compound, the “estimated HC50 (concentration causing 50% of hemolysis)” value in series [10] (human erythrocytes, 37 °C) is 266.20 ± 41.27 µM.
Regarding “I: H-FLSGIVGML[dA]KLFKK-NH2 / II: H-FLSGIVGML[dA]KLF / III: H-FLSGIVGML[dA]KLF (amide I:14-III:C, I:15-II:C) [[G10a]3-SHa]”, the “minimal inhibitory concentration (MIC)” value in [13] turned out to be 3.12 µM; in series [18] it was 25 µM; in series [19], 25 µM; in series [22], 6.25 µM. Further, the IC50 is 3.77 ± 0.12 µM in [1]; 5.49 ± 0.37 µM in [2]; 3.74 ± 3.46 µM in [3]; 2.31 ± 0.08 µM in [4]; 6.94 ± 0.27 µM in series [5]; 1.84 ± 0.17 µM in series [6]. In addition, the values for the IC50 in series [7], in series [8] (48 h) and in series [9] were 2.24 ± 0.05 µM, 3.76 ± 1.87 µM and 13.9 ± 0.42 µM, respectively. Besides, the “times more active than [G10a]-SHa at inhibiting multiplying cancer cells” value in series [8] (from mean IC50 on human cancer cells) was determined as 4.8 times. The “hemolytic activity (in words)” value in [10] was “high hemolytic activity”. Besides, the hemolysis result in [10] is reported as “complete hemolysis”. For the same compound, the “estimated HC50 (concentration causing 50% of hemolysis)” value in series [10] (red cells of human) is on record as 10.46 ± 0.36 µM. The “stability at different temperatures” value in series [11] is “considerable stability up to 60 °C”. Besides, the “stability at different pH” value in series [12] was “significantly stable at pH values up to 10 and unstable at high pH values of 12 and 14”. In addition, in [24] (DLS), the “Pdi Values (polydispersity index)” value was 0.462. Further, the average hydrodynamic diameter result in series [24] (DLS) was “about 46.13 nm”. The compound further gave a Z-Average in series [24] (DLS, room temperature) of 46.13 nm·days. Besides, the “Zeta Potential” value in series [24] (zetasizer) is listed as −71.2 mV.
